In patent US20170105999A1, “METHOD FOR TREATING DRUG RESISTANT CANCER” (NATIONAL YANG MING UNIVERSITY, priority 2014, published 2017):

How the values were obtained:
H441 [1] = test: Tumor spheroid (sphere formation) assay; format: cell-based, human; settings: H441, adenocarcinoma
CL152 spheres = test: Apoptosis by flow cytometry; format: cell-based; settings: 48 hours
J5 = test: Tumor spheroid (sphere formation) assay; format: cell-based; settings: J5, hepatocellular carcinoma
H441 [2] = test: Aldefluor assay (ALDH-positive cell population); format: cell-based, human; settings: H441, adenocarcinoma
Method: Briefly, single cells obtained from cell cultures were incubated in an Aldefluor assay buffer containing an ALDH substrate (bodipy-aminoacetaldehyde, BAAA) for 50 minutes at 37° C.

NCI-H441 = test: Subcutaneous NCI-H441 tumor in NOD/SCID mice; format: in vivo; settings: 5 mg/kg, 5 days/week, i.p.; four weeks post treatment; vs vehicle, p<0.01
Method: In the first trial, human lung cancer cell line NCI-H441 (purchased from ATCC, 1 million cells/injection) cells were subcutaneously injected into the right flank of NOD/SCID mice (female, 4-6 weeks old). […] Over the period of 4 weeks, tumorigenesis in both groups was measured using a caliper on a weekly basis. The change in tumor size was expressed as in fold change and plotted over time.
In the first trial (FIG. 3A), NCI-H441 (1×10^6 cells/injection) cells were subcutaneously injected into the right flank of NOD/SCID mice (female, 4-6 weeks old).

SK-Hep 1 = test: Tumor spheroid (sphere formation) assay; format: cell-based; settings: SK-Hep 1, liver cancer
Mahlavu = test: Tumor spheroid (sphere formation) assay; format: cell-based; settings: liver cancer
H1299 [3] = test: Clonogenic assay; format: cell-based; settings: H1299, large cell carcinoma
Method: Tested cells were seeded respectively in 6 well plates with 10^4 cells per well for 14 days. […] After the treatments, cells were washed with PBS, and the colonies were fixed with fix solution (methanol: acetic acid=3:1) and stained with 0.5% crystal violet in methanol. After removing the crystal violet carefully and rinse with tap water, the colonies were counted manually.

H1299 [4] = test: Tumor spheroid (sphere formation) assay
Method: In brief, single cells were plated in 6-well ultralow attachment plates (Coming Inc.) at a density of 2,000 cells/mL in tumor spheroid culture medium, DMEM/F12 supplemented with 1% N2 Supplement (Invitrogen), 10 ng/mL basic fibroblast growth factor (Sigma-Aldrich), 10 ng/mL epidermal growth factor (Invitrogen) with 1% penicillin/streptomycin (Invitrogen) at 37° C. in a humidified atmosphere of 95% air and 5% CO2. Cells were cultured twice per week. When passaged, tumor spheres were harvested. Spheroids were dissociated with TrypLE™ (Invitrogen). Spheroids cell counting using the Trypan Blue Exclusion method.

HT29 = test: Tumor spheroid (sphere formation) assay; format: cell-based; settings: HT29, colorectal adenocarcinoma
NSCLC cells = test: Side population analysis in NSCLC cells; format: cell-based; settings: 48 hours of incubation at 2.5, 5 and 10 μM
Method: Single-cell suspensions of cells were detached from dishes with Trypsin-EDTA (Invitrogen) and suspended at 1×10^6 cells/mL in Hank's balanced salt solution ([…]) supplemented with 3% fetal calf serum and 10 mM Hepes. These cells were then incubated at 37° C. for 90 minutes with 20 μg/mL Hoechst 33342 (Sigma Chemical, St. Louis, Mo.). […] After 90 minutes incubation with indicated drugs, the cells were centrifuged immediately for 5 minutes at 300 g and 4° C. and resuspended in ice-cold HBSS, The cells were kept on ice to inhibit efflux of the Hoechst dye, and 1 μg/mL propidium iodide (PI, BD) were added to discriminate dead cells. Finally, these cells were filtered through a 40 μm cell strainer (BD) to obtain single-suspension cells. Cell dual-wavelength analysis and purification were performed on a dual-laser FACS Vantage SE (BD). Hoechst 33342 can be excited at 355 nm UV light and emitted blue fluorescence with a 450/20 band-pass (BP) filter and red fluorescence with a 675 nm edge filter long-pass (EFLP). […]
A549, A549-ON, CL97, CL141, HCC827, and H441 were lung adenocarcinoma cell lines. […] Cell viability was determined by SRB assay. […] To determine whether side population (SP) cells, which represent a cell population with CSC characteristics, exist in NSCLC cell lines, we stained the cells with the fluorescent dye, Hoechst 33342, and analyzed the cells with flow cytometry.

CL141 = test: Cytotoxicity, sulforhodamine B (SRB) assay; format: cell-based; settings: read-out: IC50 for prochlorperazine metabolites, CL141 parental cells
Method: (§1) Cells were plated in 96-well plates at a density of 2000 cells per well in triplicate. The cells were treated on the third day (to ensure proper plating efficiency and vitality) to indicated agents for 48 hrs. […] Cytotoxicity was assessed using the sulforhodamine B (SRB) assay (23). Briefly, the medium was discarded, and the adherent cells were fixed by 100 μl of cold 10% trichioroacetic acid (w/v) in each well for 1 h at 4° C. After fixation, cells were stained with 100 μl/well of 0.4% (w/v, in 1% acetic acid) SRB solution for 30 min at room temperature, and then washed 5 times with 1% acetic acid. After air-drying, 100 μl of 10 mM Tris base was added to each well and the absorbance was read at 530 nm. Cytotoxicity is expressed as the percent of cells in drug treated wells relative to number of cells in the solvent only control (set to 100%). Each experiment was performed independently at least 2 times in triplicate and cytotoxicity is given as means ±SD.
(§2) A549, A549-ON, CL97, CL141, HCC827, and H441 were lung adenocarcinoma cell lines. CL152, H2170, and H226 were squamous cell carcinoma cell lines. Cell viability was determined by SRB assay. […] To determine whether side population (SP) cells, which represent a cell population with CSC characteristics, exist in NSCLC cell lines, we stained the cells with the fluorescent dye, Hoechst 33342, and analyzed the cells with flow cytometry.

CL152 = test: Cytotoxicity, sulforhodamine B (SRB) assay; format: cell-based; settings: read-out: IC50 for prochlorperazine metabolites, CL152 parental cells
Method: as §1, §2

CN1CCN(CCCN2c3ccccc3Sc3ccc(Cl)cc32)CC1 [prochlorperazine]
Sphere formation (H441 [1]): 0 to 2.5 µM
apoptosis (CL152 spheres): dose-dependent increase in apoptosis
Sphere formation (J5): >5 µM
ALDH^+ assay (H441 [2]): <10 µM
tumor growth (NCI-H441): effective in suppressing tumor growth
Sphere formation (SK-Hep 1): >5 µM
Sphere formation (Mahlavu): >5 µM
Clonogenic assay (H1299 [3]): 5 to 10 µM
sphere-forming ability (H1299 [4]; H1299): suppressed the sphere-forming ability
Sphere formation (H1299 [4]; H1299, large cell carcinoma): 0 to 5 µM
spheres number, combination with cisplatin (H1299 [4]; H1299, combination with cisplatin vs prochlorperazine or cisplatin alone): lower spheres number
Sphere formation (HT29): 0 to 2.5 µM
proportion of SP cells (NSCLC cells): dose-dependently decease
IC50 (CL141): 10 to 20 µM
IC50 (CL152): 10 to 20 µM
